# Key:
# Escherichia coli [1] = experiment: Antimicrobial activity against Escherichia coli 25922 assessed as absence bacterial growth measured after 18 to 24 hrs incubation by NCCLS method; type: functional; settings: time 18-24 hrs
# Escherichia coli [2] = experiment: Antimicrobial activity against Escherichia coli K88 assessed as absence bacterial growth measured after 18 to 24 hrs incubation by NCCLS method; type: functional; settings: time 18-24 hrs
# Salmonella typhimurium [3] = experiment: Antimicrobial activity against Salmonella typhimurium 14028 assessed as absence bacterial growth measured after 18 to 24 hrs incubation by NCCLS method; type: functional, Salmonella enterica subsp. enterica serovar Typhimurium; settings: Salmonella enterica, time 18-24 hrs
# [4] = Antimicrobial activity against Salmonella pullorum C7913 assessed as absence bacterial growth measured after 18 to 24 hrs incubation by NCCLS method; type: functional, Salmonella enterica subsp. enterica serovar Pullorum; settings: Salmonella enterica, time 18-24 hrs
# Pseudomonas aeruginosa [5] = experiment: Antimicrobial activity against Pseudomonas aeruginosa 27853 assessed as absence bacterial growth measured after 18 to 24 hrs incubation by NCCLS method; type: functional; settings: time 18-24 hrs
# Acinetobacter baumannii [6] = experiment: Antimicrobial activity against Acinetobacter baumannii 1.6769 assessed as absence bacterial growth measured after 18 to 24 hrs incubation by NCCLS method; type: functional; settings: time 18-24 hrs
# Enterococcus faecalis [7] = experiment: Antimicrobial activity against Enterococcus faecalis 29212 assessed as absence bacterial growth measured after 18 to 24 hrs incubation by NCCLS method; type: functional; settings: time 18-24 hrs
# Listeria monocytogenes [8] = experiment: Antimicrobial activity against Listeria monocytogenes 1.10753 assessed as absence bacterial growth measured after 18 to 24 hrs incubation by NCCLS method; type: functional; settings: time 18-24 hrs
# Bacillus cereus [9] = experiment: Antimicrobial activity against Bacillus cereus 1.932 assessed as absence bacterial growth measured after 18 to 24 hrs incubation by NCCLS method; type: functional; settings: time 18-24 hrs
# Staphylococcus aureus [10] = experiment: Antimicrobial activity against Staphylococcus aureus 29213 assessed as absence bacterial growth measured after 18 to 24 hrs incubation by NCCLS method; type: functional; settings: time 18-24 hrs
# Staphylococcus aureus [11] = experiment: Antimicrobial activity against Methicillin-resistant Staphylococcus aureus 43300 assessed as absence bacterial growth measured after 18 to 24 hrs incubation by NCCLS method; type: functional; settings: time 18-24 hrs
# [12] = tested on: Staphylococcus epidermidis; experiment: Antimicrobial activity against Staphylococcus epidermidis 12228 assessed as absence bacterial growth measured after 18 to 24 hrs incubation by NCCLS method; type: functional; settings: time 18-24 hrs
# Staphylococcus aureus [13] = experiment: Antimicrobial activity against Staphylococcus aureus 29213 assessed as absence bacterial growth measured after 18 to 24 hrs incubation by NCCLS m; type: functional; settings: time 18-24 hrs
# Escherichia coli [14] = experiment: Antimicrobial activity against Escherichia coli 25922 assessed as bacterial killing measured after 16 hrs incubation; type: functional
# Escherichia coli [15] = experiment: Antimicrobial activity against Escherichia coli K88 assessed as bacterial killing measured after 16 hrs incubation; type: functional
# Salmonella typhimurium [16] = experiment: Antimicrobial activity against Salmonella typhimurium 14028 assessed as bacterial killing measured after 16 hrs incubation; type: functional, Salmonella enterica subsp. enterica serovar Typhimurium; settings: Salmonella enterica
# Salmonella typhimurium [17] = experiment: Antimicrobial activity against Salmonella typhimurium C7731 assessed as bacterial killing measured after 16 hrs incubation; type: functional, Salmonella enterica subsp. enterica serovar Typhimurium; settings: Salmonella enterica
# [18] = Antimicrobial activity against Salmonella pullorum C7913 assessed as bacterial killing measured after 16 hrs incubation; type: functional, Salmonella enterica subsp. enterica serovar Pullorum; settings: Salmonella enterica
# Pseudomonas aeruginosa [19] = experiment: Antimicrobial activity against Pseudomonas aeruginosa 27853 assessed as bacterial killing measured after 16 hrs incubation; type: functional
# Acinetobacter baumannii [20] = experiment: Antimicrobial activity against Acinetobacter baumannii 1.6769 assessed as bacterial killing measured after 16 hrs incubation; type: functional
# Enterococcus faecalis [21] = experiment: Antimicrobial activity against Enterococcus faecalis 29212 assessed as bacterial killing measured after 16 hrs incubation; type: functional
# Listeria monocytogenes [22] = experiment: Antimicrobial activity against Listeria monocytogenes 1.10753 assessed as bacterial killing measured after 16 hrs incubation; type: functional
# Bacillus cereus [23] = experiment: Antimicrobial activity against Bacillus cereus 1.932 assessed as bacterial killing measured after 16 hrs incubation; type: functional
# Staphylococcus aureus [24] = experiment: Antimicrobial activity against Staphylococcus aureus 29213 assessed as bacterial killing measured after 16 hrs incubation; type: functional
# Staphylococcus aureus [25] = experiment: Antimicrobial activity against Methicillin-resistant Staphylococcus aureus 43300 assessed as bacterial killing measured after 16 hrs incubation; type: functional
# [26] = tested on: Staphylococcus epidermidis; experiment: Antimicrobial activity against Staphylococcus epidermidis 12228 assessed as bacterial killing measured after 16 hrs incubation; type: functional
# Staphylococcus aureus [27] = experiment: Antimicrobial activity against Staphylococcus aureus 25923 assessed as bacterial killing measured after 16 hrs incubation; type: functional
# Salmonella typhimurium [28] = experiment: Antimicrobial activity against Salmonella typhimurium C7731 assessed as absence bacterial growth measured after 18 to 24 hrs incubation by NCCLS method; type: functional, Salmonella enterica subsp. enterica serovar Typhimurium; settings: Salmonella enterica, time 18-24 hrs
# Escherichia coli [29] = experiment: Antimicrobial activity against Escherichia coli 25922 assessed as absence bacterial growth measured after 18 to 24 hrs incubation in presence of 50% serum by NCCLS method; type: functional; settings: time 18-24 hrs
# Escherichia coli [30] = experiment: Antimicrobial activity against Escherichia coli 25922 assessed as absence bacterial growth measured after 18 to 24 hrs incubation in presence of 25% serum by NCCLS method; type: functional; settings: time 18-24 hrs
# Escherichia coli [31] = experiment: Antimicrobial activity against Escherichia coli 25922 assessed as absence bacterial growth measured after 18 to 24 hrs incubation in presence of 12.5% serum by NCCLS method; type: functional; settings: time 18-24 hrs
# [32] = Hemolytic activity in human RBC at effective concentration at 128 uM measured after 1 hr by microplate reader relative to control; type: toxicity, cell-based, Erythrocyte; settings: human red blood cells (erythrocytes), read-out: Activity
# Escherichia coli [33] = experiment: Antimicrobial activity against Escherichia coli 25922 assessed as absence bacterial growth measured after 18 to 24 hrs incubation in presence of NaCl by NCCLS method; type: functional; settings: time 18-24 hrs
# Escherichia coli [34] = experiment: Antimicrobial activity against Escherichia coli 25922 assessed as absence bacterial growth measured after 18 to 24 hrs incubation in presence of KCl by NCCLS method; type: functional; settings: time 18-24 hrs
# Escherichia coli [35] = experiment: Antimicrobial activity against Escherichia coli 25922 assessed as absence bacterial growth measured after 18 to 24 hrs incubation in presence of NH4Cl by NCCLS method; type: functional; settings: time 18-24 hrs
# Escherichia coli [36] = experiment: Antimicrobial activity against Escherichia coli 25922 assessed as absence bacterial growth measured after 18 to 24 hrs incubation in presence of MgCl2 by NCCLS method; type: functional; settings: time 18-24 hrs
# Escherichia coli [37] = experiment: Antimicrobial activity against Escherichia coli 25922 assessed as absence bacterial growth measured after 18 to 24 hrs incubation in presence of ZnCl2 by NCCLS method; type: functional; settings: time 18-24 hrs
# Escherichia coli [38] = experiment: Antimicrobial activity against Escherichia coli 25922 assessed as absence bacterial growth measured after 18 to 24 hrs incubation in presence of FeCl3 by NCCLS method; type: functional; settings: time 18-24 hrs
# [39] = Cytotoxicity against mouse RAW264.7 cells assessed as cell survival rate at 32 to 64 uM measured after 8 hrs by MTT assay relative to control; type: toxicity, cell-based; settings: dose 32-64 µM, read-out: Activity
# [40] = Cytotoxicity against human HEK-293T cells assessed as cell survival rate at 64 uM measured after 8 hrs by MTT assay relative to control; type: toxicity, cell-based; settings: read-out: Activity
# [41] = Cytotoxicity against porcine IPEC-J2 cells assessed as cell survival rate at 64 uM measured after 8 hrs by MTT assay relative to control; type: toxicity, cell-based, Sus scrofa; settings: pig, read-out: Activity
# Erythrocyte = experiment: Hemolytic activity in human RBC at effective concentration measured after 1 hr by microplate reader analysis; type: toxicity, cell-based
# [42] = Cytotoxicity against mouse RAW264.7 cells assessed as cell survival rate measured after 8 hrs by MTT assay; type: toxicity, cell-based
# [43] = Cytotoxicity against human HEK-293T cells assessed as cell survival rate measured after 8 hrs by MTT assay; type: toxicity, cell-based
# [44] = Cytotoxicity against porcine IPEC-J2 cells assessed as cell survival rate measured after 8 hrs by MTT assay; type: toxicity, cell-based, Sus scrofa; settings: pig
substance,measurement,setting,value
H-GKLWLKGAKLWLKGGKLWLKG-NH2,MIC,Escherichia coli [1],2 µM
same,MIC,Escherichia coli [2],1 µM
same,MIC,Salmonella typhimurium [3],2 µM
same,MIC,[4],2 µM
same,MIC,Pseudomonas aeruginosa [5],4 µM
same,MIC,Acinetobacter baumannii [6],4 µM
same,MIC,Enterococcus faecalis [7],16 µM
same,MIC,Listeria monocytogenes [8],> 32 µM
same,MIC,Bacillus cereus [9],2 µM
same,MIC,Staphylococcus aureus [10],8 µM
same,MIC,Staphylococcus aureus [11],4 µM
same,MIC,[12],8 µM
same,MIC,Staphylococcus aureus [13],8 µM
same,MBC,Escherichia coli [14],2 µM
same,MBC,Escherichia coli [15],1 µM
same,MBC,Salmonella typhimurium [16],8 µM
same,MBC,Salmonella typhimurium [17],8 µM
same,MBC,[18],2 µM
same,MBC,Pseudomonas aeruginosa [19],8 µM
same,MBC,Acinetobacter baumannii [20],4 µM
same,MBC,Enterococcus faecalis [21],16 µM
same,MBC,Listeria monocytogenes [22],> 32 µM
same,MBC,Bacillus cereus [23],2 µM
same,MBC,Staphylococcus aureus [24],8 µM
same,MBC,Staphylococcus aureus [25],8 µM
same,MBC,[26],8 µM
same,MBC,Staphylococcus aureus [27],8 µM
same,MIC,Salmonella typhimurium [28],4 µM
same,MIC,Escherichia coli [29],> 32 µM
same,MIC,Escherichia coli [30],> 32 µM
same,MIC,Escherichia coli [31],32 µM
same,"hemolysis at 1 h, 128 µM",[32],< 10%
same,MIC,Escherichia coli [33],16 µM
same,MIC,Escherichia coli [34],2 µM
same,MIC,Escherichia coli [35],2 µM
same,MIC,Escherichia coli [36],8 µM
same,MIC,Escherichia coli [37],1 µM
same,MIC,Escherichia coli [38],2 µM
same,"viability at 8 h, up to 64 µM",[39],60%
same,"viability at 8 h, 64 µM",[40],< 50%
same,"viability at 8 h, 64 µM",[41],< 50%
same,HC10,Erythrocyte,> 128 µM
same,IC50 at 8 h,[42],> 64 µM
same,IC50 at 8 h,[43],> 64 µM
same,IC50 at 8 h,[44],> 64 µM
H-GKLWLKGGKLWLKAGKLWLKG-NH2,MIC,Escherichia coli [1],2 µM
same,MIC,Escherichia coli [2],1 µM
same,MIC,Salmonella typhimurium [3],4 µM
same,MIC,[4],2 µM
same,MIC,Pseudomonas aeruginosa [5],4 µM
same,MIC,Acinetobacter baumannii [6],2 µM
same,MIC,Enterococcus faecalis [7],8 µM
same,MIC,Listeria monocytogenes [8],> 32 µM
same,MIC,Bacillus cereus [9],4 µM
same,MIC,Staphylococcus aureus [10],8 µM
same,MIC,Staphylococcus aureus [11],4 µM
same,MIC,[12],4 µM
same,MIC,Staphylococcus aureus [13],4 µM
same,MBC,Escherichia coli [14],4 µM
same,MBC,Escherichia coli [15],1 µM
same,MBC,Salmonella typhimurium [16],4 µM
same,MBC,Salmonella typhimurium [17],8 µM
same,MBC,[18],2 µM
same,MBC,Pseudomonas aeruginosa [19],8 µM
same,MBC,Acinetobacter baumannii [20],4 µM
same,MBC,Enterococcus faecalis [21],16 µM
same,MBC,Listeria monocytogenes [22],> 32 µM
same,MBC,Bacillus cereus [23],4 µM
same,MBC,Staphylococcus aureus [24],8 µM
same,MBC,Staphylococcus aureus [25],4 µM
same,MBC,[26],8 µM
same,MBC,Staphylococcus aureus [27],8 µM
same,MIC,Salmonella typhimurium [28],4 µM
same,MIC,Escherichia coli [29],> 32 µM
same,MIC,Escherichia coli [30],32 µM
same,MIC,Escherichia coli [31],16 µM
same,"hemolysis at 1 h, 128 µM",[32],< 10%
same,MIC,Escherichia coli [33],16 µM
same,MIC,Escherichia coli [34],2 µM
same,MIC,Escherichia coli [35],2 µM
same,MIC,Escherichia coli [36],8 µM
same,MIC,Escherichia coli [37],1 µM
same,MIC,Escherichia coli [38],2 µM
same,"viability at 8 h, 64 µM",[40],> 80%
same,"viability at 8 h, 64 µM",[41],> 80%
same,HC10,Erythrocyte,> 128 µM
same,IC50 at 8 h,[42],> 64 µM
same,IC50 at 8 h,[43],> 64 µM
same,IC50 at 8 h,[44],54.1 µM
